Source: patent US6831069B2, “Pyrrolo[2,3-d]pyrimidine nucleoside analogs” (priority 1999, dated 2004)
“And” between values parts separate entries of the source, which are not always exact repeats. Equal entries are not always repeated. Where two headings read alike, the source gives them in different places.

What was measured:
[1] = system: BALB/c mice; conditions: mouse, in vivo
[2] = system: activated human T cells; test: Analysis of cytokine mRNA (RT-PCR, Southern blot) in PMA-ION activated human T cells; assay type: cell-based
[3] = system: activated peripheral human T cells; test: Extracellular cytokine analyses (ELISA) in PMA-ION activated peripheral human T cells; assay type: cell-based; set-up: secreted IL-4, increase over activated control / IFNγ, decrease over activated control: concentration or dose not given beside the values; conditions: for heightened IL-4 production / reduced levels of secreted IFNγ: PMA-ION; for IFNγ, decrease over activated control / secreted IL-4, increase over activated control: 48 h PMA-ION
[4] = system: BALB/c and C57BL/6 lymph node CD4+ T cells; test: Generation of murine Th1 cells, IL-4 and IFNγ ELISA after restimulation; assay type: cell-based, mouse; set-up: murine IFNγ secretion upon restimulation: dose or concentration left out as unconfirmed; conditions: Th1 conditions (anti-CD3, IL-2, IFNγ, IL-12), both mouse strains
[5] = system: BALB/c mice; test: Contact hypersensitivity (CHS) to DNFB; assay type: in vivo, mouse; conditions: for mean decrease in ear thickness (inhibition of CHS): 24 h post-challenge
Method: Reactivity to the contact allergen, DNFB, was determined, in BALB/c mice, as previously described (Ishii, N., K. Takahashi, H. Nakajima, S. Tanaka, P. W. Askenase. 1994. DNFB contact sensitivity (CS) in BALB/c and C3H/He mice. J. Invest. Dermatol. 102:321). Briefly, mice were sensitized by application of 20 μl of 0.3% DNFB in acetone: olive oil, 4:1 onto the shaved abdomens of naive mice. For optimal elicitation of CHS, the mice were challenged on both sides of each ear with 20 μl of 0.12% DNFB, five days after sensitization. Unsensitized mice were also challenged and used as controls in each experiment. After 24 h, ear thickness measurements were taken and response to DNFB was assessed by subtracting […]. Where indicated, 7-β-D-ribofuranosyl-4-oxopyrrolo-[2,3-d]pyrimidine-5-carboxamidine, at a dose of 6.2 μg in 50 μl PBS (0.3 mg/kg) or 12.4 μg in 100 μl PBS (0.6 mg/kg), was administered by i.p. injection at the time of challenge with DNFB. These doses of 7-β-D-ribofuranosyl-4-oxopyrrolo[2,3-d]pyrimidine-5-carboxamidine gave maximal effect in preliminary optimization studies. Following final ear thickness measurements, mice were sacrificed by cervical dislocation and axillary/lateral axillary lymph nodes were removed. Following isolation of total cellular RNA from isolated lymph node cells, RT-PCR and Southern Blot analyses were performed to monitor for mouse IFNg, IL-2, and IL-10 mRNA levels.
Total cellular RNA was extracted using Trizol reagent (Life Technologies, Gaithersburg, Md.). The cDNA synthesis reaction was performed using oligo (dT)12-18 primer and Superscript II (Life Technologies) reverse transcriptase. The PCR reaction (GeneAmp PCR kit, Perkin-Elmer, Foster City, Calif.) consisted of a 50 μl mixture containing cDNA, dNTPs (each at 200 μM), 0.5 μM of each primer pair and 1.25 unit of Taq polymerase. The primers for human IL-2, IL-10, IL-4, IL-6, IL-1b, IFNg, c-myc, IL-2R, CD40L (Stratagene, La Jolla, Calif.), iNOS (Clontech, Palo Alto, Calif.) and pHE7 ribosomal gene were used. Typical amplification conditions included a 5-minute denaturation at 94° C. and a 5 minute annealing at 60° C. followed by 35 cycles of 1.5 min at 72° C., 45 sec at 94° C. and 45 sec at 60° C., with a final extension time of 10 min at 72° C. The primers for mouse IL-2, IFNγ, and β-actin were obtained from Stratagene and mouse IL-10 from Clontech. Amplification conditions for the Stratagene mouse cytokine primers were a 5 min denaturation at 94° C. and a 5 min annealing at 60° C. followed by 35 cycles of 1.5 min at 72° C., 45 sec at 94° C. and 45 sec at 60° C., with a final extension time of 10 min at 72° C. For IL-10, the PCR conditions were a 5-minute denaturation at 94° C. followed by 35 cycles of 45 sec at 94° C., 45 sec at 60° C. and 2 min at 72° C., with a final extension time of 7 min at 72° C.
For each gene product, the optimum cDNA dilution was determined experimentally and was defined as the cDNA dilution that would achieve a detectable concentration that was well below saturating conditions. […] Equivalent loading was assessed following hybridization with a probe generated from pHE7 sense primer. Washed blots were then analyzed using a Phosphorimager (Biorad, Richmond, Calif.). Relative changes in cytokine or other test mRNA were presented as densitometric readings and normalized for any variations in input RNA by determining the densitometric ratio of mRNA of interest relative to mRNA of the housekeeping gene, pHE7.

[6] = system: activated human T cells; test: MTT cell proliferation assay; assay type: cell-based; conditions: data not shown
[7] = system: PHA activated PBMC; test: ELISA spot assay, number of cytokine producing cells; assay type: cell-based, human; conditions: 10 μM
[8] = system: PMA/ionomycin stimulated T cell; test: Extracellular cytokine levels (ELISA) in PMA/ionomycin activated human T cells, 0 or 10 μM nucleoside; assay type: cell-based; conditions: 48 h, 5 human donors, of activated control level
[9] = 10 μM, T cells from normal donors and RA patients
[10] = 2, 5 or 10 μM, 6 h or 24 h, PMA-ION, representative of three donors
[11] = pro-/anti-inflammatory mediator study, FIG. 18
[12] = 10 μM, 48 h, representative of five donors
[13] = 10 μM, T cells of 16 RA patients
[14] = 10 μM, T cells of 16 normal donors
[15] = lymph node cells, DNFB-primed mice

N=C(N)c1cn([C@@H]2O[C@H](CO)[C@@H](O)[C@H]2O)c2nc[nH]c(=O)c12 [ICN 10776, 7-β-D-ribofuranosyl-4-oxopyrrolo-[2,3-d]pyrimidine-5-carboxamidine]
IFNγ mRNA levels [1]: substantially reduced | mean decrease in serum nitrite levels [1]: 54% and 78% | murine IL-10 mRNA expression [1]: greatly enhanced | IFNγ mRNA levels [2, 9]: suppressed | IL-4 mRNA levels [2, 9]: elevated | TNFα mRNA levels [2, 9]: suppressed | IFNγ mRNA [2, 10]: concomitant decrease | IL-4 mRNA [2, 10]: increase in IL-4 mRNA | TNFα mRNA [2, 10]: concomitant decrease | IFNγ mRNA [2, 11]: suppression | IL-1β mRNA [2, 11]: suppressed | IL-2 mRNA [2, 11]: suppression | IL-4 mRNA [2, 11]: enhancement | IL-6 mRNA [2, 11]: suppressed | IL-10 mRNA [2, 11]: enhancement of IL-10 | TNFα mRNA [2, 11]: suppression | c-myc expression [2, 11]: suppression | inducible nitric oxide synthase (iNOS) expression [2, 11]: reduction | peak enhancement of PMA-ION-induced IL-4 level [3, 12]: 166% | peak enhancement of PMA-ION-induced IL-5 level [3, 12]: 77% | heightened IL-4 production [3, 13]: 192% | reduced levels of secreted IFNγ [3, 13]: 63% | heightened IL-4 production [3, 14]: 266% | reduced levels of secreted IFNγ [3, 14]: 43% | peak suppression of PMA-ION-induced IFNγ level ([3]; 20 μM, 48 h): 72% | peak suppression of PMA-ION-induced IL-2 level ([3]; 20 μM, 48 h): 62% | peak suppression of PMA-ION-induced TNFα level ([3]; 20 μM, 48 h): 78% | IFNγ, decrease over activated control ([3]; CD4+ T cells): 81% | secreted IL-4, increase over activated control ([3]; CD4+ T cells): 994% | IFNγ, decrease over activated control ([3]; CD8+ T cells): 37% | secreted IL-4, increase over activated control ([3]; CD8+ T cells): 228% | IFNγ, decrease over activated control ([3]; total T cells): 52% | secreted IL-4, increase over activated control ([3]; total T cells): 320% | murine IL-4 secretion upon restimulation ([4]; co-incubation with 10 mM ICN 10776): elevated levels of IL-4 | murine IFNγ secretion upon restimulation ([4]; co-incubation with ICN 10776): low levels of IFNγ | mean decrease in ear thickness (inhibition of CHS) ([5]; 0.3 mg/kg i.p. at time of challenge): 42% | mean decrease in ear thickness (inhibition of CHS) ([5]; 0.6 mg/kg i.p. at time of challenge): 68% | IFNγ mRNA levels [5, 15]: substantially reduced | IL-2 mRNA levels [5, 15]: substantially reduced | murine IL-10 mRNA expression [5, 15]: greatly enhanced | T cell proliferation (MTT) [6]: dramatically inhibited T cell proliferation | number of IL-2-producing cells ([7]; 24 h): dramatic fall | number of IFNγ-producing cells ([7]; 48 h): dramatic fall | number of IL-4 producing cells ([7]; 48 h): substantial increase | number of IL-5 producing cells ([7]; 48 h): substantial increase | enhanced activated IL-4 production [8]: 498%±83 | suppressed IFNγ [8]: 43%±4
